SMILES	melting point [°C]
COCCCOc1ccc(-c2nc(C(=O)Nc3nccs3)c(-c3ccc(Cl)cc3)[nH]2)cc1	173 to 177
COC(=O)C(O)(c1ccc(C(F)(F)F)cc1)c1ccc(C(F)(F)F)cc1	68
Nc1cccc(-c2cccc(-c3ccnc4c(C(=O)c5cccs5)cnn34)c2)c1	117 to 121
CN1CCN(c2ccc3nnn(Cc4ccc5ncccc5c4)c3n2)CC1	131 to 133
Nc1ccc(C2=NN3CCCC3Cc3cc4c(cc32)OCO4)cc1 (centres undefined)	153 to 155
COc1cccc(OC)c1NC(=O)c1ccc2nc(N[C@@H]3CCc4ccccc43)ccc2c1	199
CC1(c2cccc(C3(O)CCCCC3)c2)OCCO1	55 to 57
CC(C)C1(C)NC(c2nccc(O)c2C(=O)O)=NC1=O (centres undefined)	210 to 211
c1ccc(Oc2ccncc2)cc1	46 to 49
O=C(CSc1nc2ccccc2[nH]1)c1ccccc1	167
Cc1ccc2c(c1)C(C(=O)Nc1c(Cl)cccc1Cl)c1ccccc1CO2 (centres undefined)	156 to 157
CC(C)(C)C=Cc1nn(-c2ccc(F)cc2F)c2c1C1CCC2C1 (centres undefined)	98 to 101
Cc1cc(CON2C(=O)c3ccccc3C2=O)on1	129 to 131
CC(=O)Oc1cc2c(cc1C(C)(C)C)OC(C)(CCOc1ccc(CC3SC(=N)NC3=O)cc1)CC2 (centres undefined)	175 to 178
CS(=O)(=O)c1c(C(=O)c2cnoc2C2CC2)ccc(F)c1F	115 to 118
CC(=O)Nc1c(-c2cccc(-n3c(N)nc4ccccc43)c2)cnn1C	135 to 137
COc1cc(C(=O)c2ccc(C(F)(F)F)cc2)cc(C#N)c1OC	130
OC(Cn1cncn1)(c1ccc(F)cc1F)C(F)n1cncn1 (centres undefined)	117 to 123
O=C(Nc1cc(-c2cc(Nc3ccc(N4CCNCC4=O)cn3)c(=O)[nH]n2)ccc1F)c1cc2c(s1)CCCC2	285 to 287
Cc1nc2ccccc2nc1S(=O)Cc1ccccn1 (centres undefined)	85 to 88
C[C@H]1[C@@H](C#N)CCN1c1ccc(C#N)c2ccccc12	143 to 145
Cc1ccc(O)c(C)c1N(C)C	162 to 165

SMILES	melting point [°C]
Oc1cc2[nH]c3c(O)c(O)cc(Br)c3c2cc1O	> 260
COc1ccccc1CNc1ccc2c(C(=N)c3ccc(F)cc3)cccc2n1	155
Oc1ccccc1-c1nccs1	215
O=C(c1ccc(O)cc1)N1CC=CCC1	202 to 206
CSc1ccc(Nc2cc(-c3nnc(C(C)(C)OC(C)=O)o3)ccn2)cc1	142 to 143
Cc1cc(-c2cc3cc(OCCNC[C@H](O)COc4ccccc4Cl)ccc3o2)no1	102 to 106
O=C(O)c1ncn2c(C(F)(F)F)cc(-c3ccc(C(F)(F)F)cc3)nc12	231
CS(=O)(=O)Nc1cnc(NC(=O)[C@H](CC2CCCC2)c2ccc(S(C)(=O)=O)c(Cl)c2)cn1	108 to 110
CNNc1nncc(-c2ccccc2)n1	112 to 113
CCN1CCC2(c3cccc(O)c3)Cc3[nH]c(C(=O)N4CCCC4)c(C)c3CC2C1 (centres undefined)	224 to 226
COc1ccc(CN2CCC(c3cn(Cc4ccc(Cl)s4)c4cnccc34)CC2)cc1C(=O)O	125 to 127
Cc1ccc(C2=NC[C@@H](O)[C@H](c3ccccc3)O2)cc1 (racemic)	168
CCCCn1c(=O)c2c(ncn2S(=O)(=O)CC23CCC(CC2=O)C3(C)C)n(CCCC)c1=O (centres undefined)	55 to 56
CC(C)NC(=O)c1nn(-c2ccc(Cl)cc2)c(=O)c2c(N)scc12	197 to 199
CC(C)(C=O)N1C(=O)c2ccccc2C1=O	80 to 82
CC(C)n1nc(-c2sc(NC(=O)OC(C)(C)C)nc2-c2ccccc2)ccc1=O	198 to 199
Nc1c(-c2ccc(Oc3ccccc3)cc2)nc2ccccc2c1C(=O)O	218 to 220
N#CN=C(Nc1cccnc1)NC(NC(=O)c1ccc(Cl)cc1)C(F)(F)F (centres undefined)	136 to 138
Nc1cc(C(F)(F)F)on1	44 to 45
Cn1cccc1C(=O)Nc1ccc(-n2nc(C(F)(F)F)cc2C(F)(F)F)cc1	148 to 149
O=C(O)c1ccc(Cl)cc1Sc1ccc(F)cc1	204 to 213
CCCCc1nnc2c(Cl)nc3ccccc3n12	144 to 146

SMILES	melting point [°C]
O=C(O)c1ccc2c(c1)Sc1ccc(F)cc1C=C2	273 to 275
O=C1CCc2ccc(OCCCCN3CCN(c4cccc5cc(Cl)ccc45)CC3)nc2N1	215 to 216
O=C1CCC(Cc2c[nH]c3ncccc23)N1 (centres undefined)	160 to 162
Cn1c(-c2cccc3[nH]c(-c4ccncc4)cc23)n[nH]c1=O	> 300
COc1ccccc1CSc1c(O)cc(-c2ccccc2)oc1=O	152 to 153
CCC(=O)NC(Cc1ccccc1)c1ccccn1 (centres undefined)	91 to 93
OCCc1ccc(COc2cccc(-c3c(-c4ccccc4)cnc4c(C(F)(F)F)cccc34)c2)cc1	50
Cc1c2c(c(C)n1CCCN(C)C)C(C)(C#N)CC2(C)C (centres undefined)	90.5 to 91
Cn1nc(N)c2sc3c(Cl)cccc3c21	239 to 241
Cc1c(-c2ccccc2)nc2ccccc2c1C(=O)N[C@@H](C)C1CCCCC1	177 to 180
NNC(=S)N1CCN(c2nc3cccccc-3n2)CC1	224 to 228
COc1ccc(-c2n[nH]cc2C(=O)N2CCOCC2)cc1OC	122
CC1(C)OC(C)(C)C(=NO)C1=NO	252
Cc1nc2cccc3n(CCC4CCN(S(=O)(=O)C(F)(F)F)CC4)c(=O)c1n23	169 to 170
CN(C)c1ccc(CN=C(Cc2ccccc2)N2CC3C(=O)CCC(c4ccccc4)(c4ccccc4)C3C2)cc1 (centres undefined)	186
COc1cc2c(cc1Nc1ncc(Cl)c(Nc3cc(C#N)ccc3OC)n1)CCN(CC(=O)N(C)C)CC2	86 to 105
COc1ccc(C2CCCCC2=O)cc1 (centres undefined)	90
O=C(CN1CCOCC1)Nc1cccc2nc(N[C@@H]3CCc4ccccc43)ccc12	179
COc1ccc(C2c3ccccc3C(c3ccc4c(c3)OCO4)C2c2nnn[nH]2)cc1 (centres undefined)	155 to 157
N#CCc1ccc(C(=O)c2ccc(Cl)cc2)[nH]1	203 to 205

Now from value to compound:

melting point [°C]	SMILES
170 to 171	O=C(O)Cc1cccc2c(-c3ccc(F)cc3)onc12
136 to 138	CCC(CC)Nc1cc(C)nc(Nc2c(C)cc(C)cc2C)c1CC(C(=O)OC)C(=O)OC
89 to 91	COC(=O)[C@H](Cc1ccc(OCCNC(=O)OC(C)(C)C)cc1)NC(=O)OCc1ccccc1
213 to 214	CCCCn1ncc(/C=C(\Cc2cc3c(cc2OC)OCO3)C(=O)O)c1-c1ccc(OC)cc1OCc1ccccc1C(=O)O
101 to 104	Nc1nc(CCCCN2CCN(c3ncccn3)CC2)cs1
214 to 216	CCOC(=O)N1CCc2nc3ccc(N)cc3c(C)c2CC1
100 to 101	NC(=O)CCSSCCC(N)=O
203 to 204	O=C(O)CCCCCCCn1cnc(-c2ccc(O)cc2)c1-c1ccc(O)cc1
136 to 139	CN(C)CCCN(C)C(=O)Nc1ccc(-c2nnc(CSCCOc3ccccc3)o2)cc1
81.5 to 83	CCCC/C(=C\C=C\C(=O)Oc1ccc([N+](=O)[O-])cc1)c1cccc(OC)c1
58 to 61	CCSCCCCCCCCCCC(=O)O
70 to 72	CCOC(=O)C(=CNc1cc(C)nn1-c1ccccc1)C(=O)OCC
125 to 127	NC(=O)c1cc([N+](=O)[O-])cnc1C(Cl)Cl
100 to 103	CCN(CC)C1=CC(=O)C(=O)C=C1N(CC)CC
186 to 187	CCOCc1nc2c(N)nc3cc(-c4cccc(CO)c4)cnc3c2n1CC(C)(C)O
70 to 74	CCOC(=O)CCC(=O)Oc1cccc(-c2cn3c(n2)sc2ccccc23)c1
156 to 157	Nc1ccc(CCC(=O)Nc2ccc(C(=O)c3ccccc3)cc2)cc1N
172	CCCCc1c[nH]c2c(Br)cccc2c1=O
87 to 90	CC1(CC(=O)O)CCCCC1=O (centres undefined)
161	CCCCCC1=NNC(C)=C(C(=O)NN)C1c1ccccc1 (centres undefined)

melting point [°C]	SMILES
185 to 186	CNC(=NC#N)NCCS(=O)Cc1nsc(NC(=N)N)n1 (centres undefined)
152	Nc1nc(/C(=N/OCC(=O)OC(c2ccccc2)c2ccccc2)C(=O)Sc2nc3ccccc3s2)cs1
164 to 166	CCn1nc(C(F)(F)F)c(C(=O)O)c1Cl
172 to 174	CC(=O)Nc1nc(C)c(CCCl)s1
135 to 136	CCc1cc(OCc2ccccc2)cc(C(=O)O)c1C(=O)OC
85 to 86	CCCC(=O)c1cnc2ccc(COCc3ccccc3)cc2c1Cl
109	COC(=O)c1cc(Br)n2c1CN(C(=O)OC(C)(C)C)CC2
147 to 150	COc1cc(OC)nc(NS(=O)(=O)C(C(N)=O)C(C)C)n1 (centres undefined)
201 to 202	O=C1c2ccccc2C(=O)N1CCCCSc1nccc(NC(=S)NCC(F)(F)F)n1
98 to 100	CCCC/C=C\CCCCOc1cccc(C(N)=O)c1
150 to 151	COC(=O)C(S)CNC(=O)C(=O)NCC(S)C(=O)OC (centres undefined)
113 to 115	COC(=O)N(C)CC#CCn1ccnc1
149 to 150	CCN1C(=O)C(C)(C)C(=O)N(C)c2cc(CN(CCn3c(=O)ccc4ccccc43)Cc3cccnc3C)ccc21
152 to 155	CCOC(=O)C1=C(NC(=O)Nc2ccc([N+](=O)[O-])c(C(=O)OCC)c2)CCC1
154 to 155	CC(C)OCc1nc(C(C)(C)O)c(C(=O)OC(C)C)[nH]1
170 to 171	COc1cccc(NC(=O)NC2N=C(C)c3cccc(C)c3N(CC(=O)N3CC4CCC(CC4)C3)C2=O)c1 (centres undefined)
128 to 129	CCOC(=O)C1=CC(c2cccc(C(F)(F)F)c2)=NN(C(=O)OCC)C1N1CCOCC1 (centres undefined)
80 to 85	CC(OCCCNC(=O)c1coc(-c2ccc(/C(=C\CCCCC(=O)O)c3cccnc3)cc2)n1)C1CCCCC1 (centres undefined)
209 to 215	O=C(O)Cc1cccc([N+](=O)[O-])c1[N+](=O)[O-]
169 to 171	CCCCN1C(N)=NC(Oc2cccc(C)c2)=NS1(=O)=O

From a melting point compilation (Tetko et al.; mined from patent text by program, amines drawn as free bases though some values may be those of a salt)
